This passage reports IC50 results from ChEMBL document CHEMBL4418284, “Hypdh inhibitors and methods of use for the treatment of kidney stones” (2018).

The experiment addresses T1, Hydroxyproline dehydrogenase (Homo sapiens, UniProt Q9UF12).
T1 sequence (Q9UF12 whole entry): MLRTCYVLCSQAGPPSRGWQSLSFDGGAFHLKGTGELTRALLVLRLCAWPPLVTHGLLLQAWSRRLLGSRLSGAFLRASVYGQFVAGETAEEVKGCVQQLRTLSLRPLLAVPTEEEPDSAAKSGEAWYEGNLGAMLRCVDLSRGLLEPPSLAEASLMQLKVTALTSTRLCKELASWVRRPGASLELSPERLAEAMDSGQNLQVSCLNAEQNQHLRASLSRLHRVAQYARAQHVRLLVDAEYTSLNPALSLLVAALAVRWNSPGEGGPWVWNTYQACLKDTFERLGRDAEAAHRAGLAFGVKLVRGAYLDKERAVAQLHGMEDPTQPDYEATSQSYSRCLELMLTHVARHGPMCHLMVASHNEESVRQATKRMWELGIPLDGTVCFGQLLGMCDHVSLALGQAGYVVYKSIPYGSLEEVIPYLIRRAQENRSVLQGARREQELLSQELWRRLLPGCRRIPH
The experiment is described as follows: Inhibition of human recombinant HYPDH expressed in Escherichia coli using hydroxyproline as substrate preincubated for 5 mins followed by substrate addition in presence of FAD as cofactor.

Structures are written as SMILES.

Regarding `O=C(O)c1ccco1`, the IC50 result is listed as “Nd(Insoluble)”.
